Results on 35 compounds are retold here after patent US10118902B2 (Sanford Burnham Prebys Medical Discovery Institute, priority 2014, dated 2018).

Chain of neurotensin receptor 1 (NTR1) (P30989 whole entry, species assumed): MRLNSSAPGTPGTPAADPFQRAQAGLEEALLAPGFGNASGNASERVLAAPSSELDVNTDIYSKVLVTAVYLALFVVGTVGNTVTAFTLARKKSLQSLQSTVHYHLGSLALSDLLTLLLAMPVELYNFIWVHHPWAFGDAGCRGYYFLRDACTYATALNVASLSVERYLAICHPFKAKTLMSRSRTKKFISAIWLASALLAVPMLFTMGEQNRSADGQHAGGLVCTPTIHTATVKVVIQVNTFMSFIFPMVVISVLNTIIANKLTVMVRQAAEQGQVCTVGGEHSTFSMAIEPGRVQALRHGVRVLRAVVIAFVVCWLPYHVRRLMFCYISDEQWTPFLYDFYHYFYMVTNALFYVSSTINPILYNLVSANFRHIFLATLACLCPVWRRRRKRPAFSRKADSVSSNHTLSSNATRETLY

This test has as its target neurotensin receptor 1 (NTR1) (Homo sapiens (Human), UniProt P30989). In words: NTR1 dose response, high-content imaging beta-arrestin-GFP assay in NTR1-U2OS cells. It counts as cell-based. Conditions: read-out: EC50.
`COc1ccccc1C1CCN(c2nc(C3(F)CCCC3)nc3ccc(N(C)CCO)cc23)CC1` [Example 72, 2-({2-(1-fluoro-cyclopentyl)-4-[4-(2-methoxy-phenyl)-piperidin-1-yl]-quinazolin-6-yl}-methyl-amino)-ethanol]: the EC50 – broadly, the concentration at which the effect is half-maximal – lay within 500 to 2000 nM.

Consider `CN(C)c1ccccc1C1CCN(c2nc(C3(F)CCCC3)nc3ccc(N(C)CCN4CCOCC4)cc23)CC1` [Example 73, [4-[4-(2-dimethylamino-phenyl)-piperidin-1-yl]-2-(1-fluoro-cyclopentyl)-quinazolin-6-yl]-methyl-(2-morpholin-4-yl-ethyl)-amine], for which the EC50 was 2000 to 10000 nM.

As for `CN(C)c1ccccc1C1CCN(c2nc(C3CCCC3)nc3ccc(N(C)CCN4CCOCC4)cc23)CC1` [Example 74, {2-cyclopentyl-4-[4-(2-dimethylamino-phenyl)-piperidin-1-yl]-quinazolin-6-yl}-methyl-(2-morpholin-4-yl-ethyl)-amine], the EC50 was 2000 to 10000 nM.

Regarding `CN(C)c1ccccc1C1CCN(c2nc(C3(F)CCCC3)nc3ccc(N(C)CCO)cc23)CC1` [Example 75, 2-{[4-[4-(2-dimethylamino-phenyl)-piperidin-1-yl]-2-(1-fluoro-cyclopentyl)-quinazolin-6-yl]-methyl-amino}-ethanol], the EC50 was 2000 to 10000 nM.

In the case of `COc1ccccc1C1CCN(c2nc(C3CC3)nc3ccc(N4CCC(O)CC4)cc23)CC1` [Example 76, 1-{2-cyclopropyl-4-[4-(2-methoxy-phenyl)-piperidin-1-yl]-quinazolin-6-yl}-piperidin-4-ol], the EC50 is 2000 to 10000 nM.

Take `COc1ccccc1C1CCN(c2nc(C3CC3)nc3ccc(N4CCC(OC)CC4)cc23)CC1` [Example 77]: the EC50 lay in the range of 2000 to 10000 nM.

`COc1ccccc1C1CCN(c2nc(C3CC3)nc3ccc(N4CCC(N(C)C)CC4)cc23)CC1` [Example 78, (1-{2-cyclopropyl-4-[4-(2-methoxy-phenyl)-piperidin-1-yl]-quinazolin-6-yl}-piperidin-4-yl)-dimethyl-amine]: the 50% effective concentration (EC50) was > 10000 nM.

In the case of `COc1ccccc1C1CCN(c2nc(C3CC3)nc3ccc(N4CCC(O)C4)cc23)CC1` (centres unmarked) [Example 79, 1-{2-cyclopropyl-4-[4-(2-methoxy-phenyl)-piperidin-1-yl]-quinazolin-6-yl}-pyrrolidin-3-ol], the EC50 was 500 to 2000 nM.

For the compound `COc1ccccc1C1CCN(c2nc(C3CC3)nc3ccc(N4CCC(OC)C4)cc23)CC1` (centres unmarked) [Example 80, 2-cyclopropyl-4-[4-(2-methoxy-phenyl)-piperidin-1-yl]-6-(3-methoxy-pyrrolidin-1-yl)-quinazoline], the EC50 was in the range of 500 to 2000 nM.

As to `COc1ccccc1C1CCN(c2nc(C3CC3)nc3ccc(N4CC[C@@H](O)C4)cc23)CC1` [Example 81, (R)-1-{2-cyclopropyl-4-[4-(2-methoxy-phenyl)-piperidin-1-yl]-quinazolin-6-yl}-pyrrolidin-3-ol], the half-maximal effective concentration (EC50) was < 500 nM.

Turning to `COc1ccccc1C1CCN(c2nc(C3CC3)nc3ccc(N4CC[C@H](O)C4)cc23)CC1` [Example 82, (S)-1-(2-cyclopropyl-4-(4-(2-methoxyphenyl)piperidin-1-yl)quinazolin-6-yl)pyrrolidin-3-ol], the EC50 lay within 500 to 2000 nM.

As to `COc1ccccc1C1CCN(c2nc(C3CC3)nc3ccc(N4CC[C@@H](OC)C4)cc23)CC1` [Example 83, (R)-2-cyclopropyl-4-(4-(2-methoxyphenyl)piperidin-1-yl)-6-(3-methoxypyrrolidin-1-yl)quinazoline], the EC50 was < 500 nM.

Regarding `COc1ccccc1C1CCN(c2nc(C3CC3)nc3ccc(N4CC[C@H](OC)C4)cc23)CC1` [Example 84, (S)-2-cyclopropyl-4-(4-(2-methoxyphenyl)piperidin-1-yl)-6-(3-methoxypyrrolidin-1-yl)quinazoline], the EC50 fell in the range of 500 to 2000 nM.

`CCCN(C)Cc1ccc2nc(C3CC3)nc(N3CCC(c4ccccc4OC)CC3)c2c1` [Example 85, {2-cyclopropyl-4-[4-(2-methoxy-phenyl)-piperidin-1-yl]-quinazolin-6-ylmethyl}-methyl-propyl-amine]: the EC50 is > 10000 nM.

Regarding `COc1ccccc1C1CCN(c2nc(C3CC3)nc3ccc(CN(C)C)cc23)CC1` [Example 86, {2-cyclopropyl-4-[4-(2-methoxy-phenyl)-piperidin-1-yl]-quinazolin-6-ylmethyl}-dimethyl-amine], the EC50 is > 10000 nM.

Consider `COCCN(C)Cc1ccc2nc(C3CC3)nc(N3CCC(c4ccccc4OC)CC3)c2c1` [Example 87, {2-cyclopropyl-4-[4-(2-methoxy-phenyl)-piperidin-1-yl]-quinazolin-6-ylmethyl}-(2-methoxy-ethyl)-methyl-amine], for which the EC50 lay in the range of 2000 to 10000 nM.

On to `COc1ccccc1C1CCN(c2nc(C3CC3)nc3ccc(CN(C)CCN4CCOCC4)cc23)CC1` [Example 88, {2-cyclopropyl-4-[4-(2-methoxy-phenyl)-piperidin-1-yl]-quinazolin-6-ylmethyl}-methyl-(2-morpholin-4-yl-ethyl)-amine], for which the EC50 is > 10000 nM.

Take `COc1ccccc1C1CCN(c2nc(C3CC3)nc3ccc(CN(C)CCO)cc23)CC1` [Example 89, 2-({2-cyclopropyl-4-[4-(2-methoxy-phenyl)-piperidin-1-yl]-quinazolin-6-ylmethyl}-methyl-amino)-ethanol]: the EC50 was > 10000 nM.

As for `CCOC(=O)CN(C)c1ccc2nc(C3CC3)nc(N3CCC(c4ccccc4OC)CC3)c2c1` [Example 90, ({2-cyclopropyl-4-[4-(2-methoxy-phenyl)-piperidin-1-yl]-quinazolin-6-yl}-methyl-amino)-acetic acid ethyl ester], the EC50 was > 10000 nM.

As to `CCOC(=O)CN(CC(=O)OCC)C1CCN(c2ccc3nc(C4CC4)nc(N4CCC(c5ccccc5OC)CC4)c3c2)CC1` [Example 92], the EC50 was > 10000 nM.

Turning to `CCOC(=O)CN(C)C1CCN(c2ccc3nc(C4CC4)nc(N4CCC(c5ccccc5OC)CC4)c3c2)CC1` [Example 93, [(1-{2-cyclopropyl-4-[4-(2-methoxy-phenyl)-piperidin-1-yl]-quinazolin-6-yl}-piperidin-4-yl)-methyl-amino]-acetic acid ethyl ester], the EC50 was > 10000 nM.

As for `COc1ccccc1C1CCN(c2nc(N(C)C)nc3ccc(N(C)CCO)cc23)CC1` [Example 94], the EC50 lay within 500 to 2000 nM.

As to `CCCN(C)c1ccc2nc(N(C)C)nc(N3CCC(c4ccccc4OC)CC3)c2c1` [Example 95, 4-(4-(2-methoxyphenyl)piperidin-1-yl)-N2,N2,N6-trimethyl-N6-propylquinazoline-2,6-diamine], the EC50 is > 10000 nM.

Take `CCCN(CCC)c1ccc2nc(N(C)C)nc(N3CCC(c4ccccc4OC)CC3)c2c1` [Example 96, 4-(4-(2-methoxyphenyl)piperidin-1-yl)-N2,N2-dimethyl-N6,N6-dipropylquinazoline-2,6-diamine]: the EC50 was > 10000 nM.

With `CCCN(C)c1ccc2nc(NC3CCC3)nc(N3CCC(c4ccccc4OC)CC3)c2c1` [Example 97, N2-Cyclobutyl-4-[4-(2-methoxy-phenyl)-piperidin-1-yl]-N6-methyl-N6-propyl-quinazoline-2,6-diamine], the EC50 was > 10000 nM.

For `COc1ccccc1C1CCN(c2nc(NC3CCC3)nc3ccc(N(C)CCO)cc23)CC1` [Example 98, 2-((2-(cyclobutylamino)-4-(4-(2-methoxyphenyl)piperidin-1-yl)quinazolin-6-yl)(methyl)amino)ethanol], the EC50 was > 10000 nM.

Take `COc1ccccc1N1CC2(C1)CN(c1nc(C3CC3)nc3ccc(N(C)CCO)cc13)C2` [Example 99, 2-({2-cyclopropyl-4-[6-(2-methoxy-phenyl)-2,6-diaza-spiro [3.3]hept-2-yl]-quinazolin-6-yl}-methyl-amino)-ethanol]: the EC50 lay within 2000 to 10000 nM.

Consider `CCCN(C)c1ccc2nc(C3CC3)nc(N3CC4(CN(c5ccccc5OC)C4)C3)c2c1` [Example 100, {2-cyclopropyl-4-[6-(2-methoxy-phenyl)-2,6-diaza-spiro [3.3]hept-2-yl]-quinazolin-6-yl}-methyl-propyl-amine], for which the concentration for a half-maximal effect (EC50) is 2000 to 10000 nM.

On to `COc1ccccc1N1CC2(C1)CN(c1nc(C3CC3)nc3ccc(N(C)CCN4CCOCC4)cc13)C2` [Example 101, {2-cyclopropyl-4-[6-(2-methoxy-phenyl)-2,6-diaza-spiro [3.3]hept-2-yl]-quinazolin-6-yl}-methyl-(2-morpholin-4-yl-ethyl)-amine], for which the EC50 is > 10000 nM.

Turning to `CCCN(C)c1ccc2nc(C3CC3)nc(N3CCC(c4ccccc4OC)CC3=O)c2c1` (centres unmarked) [Example 102, 1-[2-cyclopropyl-6-(methyl-propyl-amino)-quinazolin-4-yl]-4-(2-methoxy-phenyl)-piperidin-2-one], the EC50 is > 10000 nM.

`COc1ccccc1C1CCN(c2nc(C3CC3)nc3ccc(N(C)CCO)c(Cl)c23)CC1` [Example 103, 2-({5-chloro-2-cyclopropyl-4-[4-(2-methoxy-phenyl)-piperidin-1-yl]-quinazolin-6-yl}-methyl-amino)-ethanol]: the EC50 is < 500 nM.

`CCCN(C)c1cc2c(N3CCC(c4ccccc4OC)CC3)nc(C3CC3)nc2cc1Cl` [Example 104, {7-chloro-2-cyclopropyl-4-[4-(2-methoxy-phenyl)-piperidin-1-yl]-quinazolin-6-yl}-methyl-propyl-amine]: the EC50 is > 10000 nM.

`CCCN(C)c1cc2c(N3CCC(c4ccccc4OC)CC3)nc(C3CC3)nc2cc1F` [Example 105, {2-cyclopropyl-7-fluoro-4-[4-(2-methoxy-phenyl)-piperidin-1-yl]-quinazolin-6-yl}-methyl-propyl-amine]: the EC50 lay in the range of 2000 to 10000 nM.

On to `CCCN(C)c1cc2c(N3CCC(c4ccccc4N4CCC4)CC3)nc(C3CC3)nc2cc1F` [Example 106, {4-[4-(2-azetidin-1-yl-phenyl)-piperidin-1-yl]-2-cyclopropyl-7-fluoro-quinazolin-6-yl}-methyl-propyl-amine], for which the EC50 was > 10000 nM.

Consider `COc1ccccc1C1CCN(c2nc(C3CC3)nc3cc(Cl)c(N(C)CCO)cc23)CC1` [Example 107, 2-({7-chloro-2-cyclopropyl-4-[4-(2-methoxy-phenyl)-piperidin-1-yl]-quinazolin-6-yl}-methyl-amino)-ethanol], for which the EC50 is 500 to 2000 nM.
